In ChEMBL document CHEMBL3132842, “Synthesis of metergoline analogues and their evaluation as antiplasmodial agents” (Medchemcomm, 2014):

Columns and labels:
Plasmodium falciparum [1] = assay: Antiplasmodial activity against chloroquine-sensitive Plasmodium falciparum NF54 assessed as reduction in parasite growth by parasite lactate dehydrogenase assay; assay type: functional, organism-based
CHO = assay: Cytotoxicity against CHO cells by MTT assay; assay type: cell-based; details: Cricetulus griseus
[2] = Selectivity index, ratio of IC50 for CHO cells to IC50 for chloroquine-sensitive Plasmodium falciparum NF54; assay type: toxicity, cell-based; details: hamster, read-out: Ratio IC50
Plasmodium falciparum [3] = assay: Antiplasmodial activity against Plasmodium falciparum after 48 hrs by NIH quantitative high throughput screen assay; assay type: functional, organism-based

SMILES | IC50 (Plasmodium falciparum [1]) | IC50 (CHO) | selectivity ratio [2] | IC50 (Plasmodium falciparum [3])
CC(=O)c1ccc(C(=O)NC[C@@H]2C[C@@H]3c4cccc5c4c(cn5C)C[C@H]3N(C)C2)cc1 | 12.3 µM | 152 µM | 12 | 
CN1C[C@H](CNC(=O)C2CCCCN2)C[C@@H]2c3cccc4c3c(cn4C)C[C@H]21 (stereo not given in full) | 1.23 µM | 16.6 µM | 13 | 
CN1C[C@H](CNC(=O)c2cccnc2)C[C@@H]2c3cccc4c3c(cn4C)C[C@H]21 | 17.4 µM | 162 µM | 9 | 
CN1C[C@H](CNC(=O)c2ccncc2)C[C@@H]2c3cccc4c3c(cn4C)C[C@H]21 | 17.5 µM | 161 µM | 9 | 
CN1C[C@H](CNC(=O)c2ccccn2)C[C@@H]2c3cccc4c3c(cn4C)C[C@H]21 | 11.4 µM | 112 µM | 10 | 
CN1C[C@H](CNC(=O)c2cnccn2)C[C@@H]2c3cccc4c3c(cn4C)C[C@H]21 | 8.4 µM | 164 µM | 20 | 
CN1C[C@H](CNC(=O)c2ccncn2)C[C@@H]2c3cccc4c3c(cn4C)C[C@H]21 | 27.4 µM |  |  | 
CC(=O)NC[C@@H]1C[C@@H]2c3cccc4c3c(cn4C)C[C@H]2N(C)C1 | 199 µM |  |  | 
CCC(=O)NC[C@@H]1C[C@@H]2c3cccc4c3c(cn4C)C[C@H]2N(C)C1 | 40.3 µM |  |  | 
CCCC(=O)NC[C@@H]1C[C@@H]2c3cccc4c3c(cn4C)C[C@H]2N(C)C1 | 32.1 µM |  |  | 
CCCCC(=O)NC[C@@H]1C[C@@H]2c3cccc4c3c(cn4C)C[C@H]2N(C)C1 | 18.7 µM | 105 µM | 6 | 
CN1C[C@H](CNC(=O)C(C)(C)C)C[C@@H]2c3cccc4c3c(cn4C)C[C@H]21 | 89.1 µM |  |  | 
CCCCCC(=O)NC[C@@H]1C[C@@H]2c3cccc4c3c(cn4C)C[C@H]2N(C)C1 | 28.6 µM |  |  | 
CCCCCCC(=O)NC[C@@H]1C[C@@H]2c3cccc4c3c(cn4C)C[C@H]2N(C)C1 | 9.1 µM | 8.9 µM | 1 | 
CCCCCCCC(=O)NC[C@@H]1C[C@@H]2c3cccc4c3c(cn4C)C[C@H]2N(C)C1 | 3.9 µM | 4.6 µM | 1 | 
CCCCCCCCCC(=O)NC[C@@H]1C[C@@H]2c3cccc4c3c(cn4C)C[C@H]2N(C)C1 | 5.2 µM | 86.6 µM | 17 | 
CN1C[C@H](CNC(=O)C2CCCC2)C[C@@H]2c3cccc4c3c(cn4C)C[C@H]21 | 4.3 µM | 144 µM | 33 | 
CN1C[C@H](CNC(=O)c2ccc(OC(F)(F)F)cc2)C[C@@H]2c3cccc4c3c(cn4C)C[C@H]21 | 4.2 µM | 12.8 µM | 3 | 
CN1C[C@H](CNC(=O)c2ccc([N+](=O)[O-])cc2)C[C@@H]2c3cccc4c3c(cn4C)C[C@H]21 | 0.5 µM | 5 µM | 11 | 
CN1C[C@H](CNC(=O)c2ccc(Cl)cc2)C[C@@H]2c3cccc4c3c(cn4C)C[C@H]21 | 1.3 µM | 4.3 µM | 3 | 

SMILES | IC50 (Plasmodium falciparum [1]) | IC50 (CHO) | selectivity ratio [2] | IC50 (Plasmodium falciparum [3])
CN1C[C@H](CNC(=O)c2ccccc2Cl)C[C@@H]2c3cccc4c3c(cn4C)C[C@H]21 | 14.6 µM | 25 µM | 2 | 
CN1C[C@H](CNC(=O)c2cccc(Cl)c2)C[C@@H]2c3cccc4c3c(cn4C)C[C@H]21 | 4.9 µM | 4.7 µM | 1 | 
CN1C[C@H](CNC(=O)c2ccc(Cl)c(Cl)c2)C[C@@H]2c3cccc4c3c(cn4C)C[C@H]21 | 4.8 µM | 3.8 µM | 1 | 
CN1C[C@H](CNC(=O)c2ccc(Cl)cc2Cl)C[C@@H]2c3cccc4c3c(cn4C)C[C@H]21 | 8.3 µM | 7.5 µM | 1 | 
CN1C[C@H](CNC(=O)c2ccc(C#N)cc2)C[C@@H]2c3cccc4c3c(cn4C)C[C@H]21 | 0.6 µM | 104 µM | 188 | 
CN1C[C@H](CNC(=O)c2ccc(S(C)(=O)=O)cc2)C[C@@H]2c3cccc4c3c(cn4C)C[C@H]21 | 14.2 µM | 222 µM | 16 | 
COc1ccc(C(=O)NC[C@@H]2C[C@@H]3c4cccc5c4c(cn5C)C[C@H]3N(C)C2)cc1 | 8.4 µM | 7.4 µM | 1 | 
CSc1ccc(C(=O)NC[C@@H]2C[C@@H]3c4cccc5c4c(cn5C)C[C@H]3N(C)C2)cc1 | 4.7 µM | 6 µM | 1 | 
CCc1ccc(C(=O)NC[C@@H]2C[C@@H]3c4cccc5c4c(cn5C)C[C@H]3N(C)C2)cc1 | 4.3 µM | 5.6 µM | 1 | 
CCCCc1ccc(C(=O)NC[C@@H]2C[C@@H]3c4cccc5c4c(cn5C)C[C@H]3N(C)C2)cc1 | 2 µM | 14.5 µM | 7 | 
CN(C)c1ccc(C(=O)NC[C@@H]2C[C@@H]3c4cccc5c4c(cn5C)C[C@H]3N(C)C2)cc1 | 33.8 µM | 132 µM | 4 | 
CN1C[C@H](CN)C[C@@H]2c3cccc4c3c(cn4C)C[C@H]21 | 3.6 µM | 26.1 µM | 7 | 
CN1C[C@H](CNC(=O)c2ccccc2)C[C@@H]2c3cccc4c3c(cn4C)C[C@H]21 | 24.4 µM | 27 µM | 1 | 
CN1C[C@H](CNC(=O)c2ccc(F)cc2)C[C@@H]2c3cccc4c3c(cn4C)C[C@H]21 | 12.5 µM | 7.3 µM | 0.6 | 
CN1C[C@H](CNC(=O)c2ccc(Br)cc2)C[C@@H]2c3cccc4c3c(cn4C)C[C@H]21 | 2.6 µM | 5.1 µM | 2 | 
CN1C[C@H](CNC(=O)c2ccc(I)cc2)C[C@@H]2c3cccc4c3c(cn4C)C[C@H]21 | 3 µM | 5.5 µM | 2 | 
CN1C[C@H](CNC(=O)c2ccc(C(F)(F)F)cc2)C[C@@H]2c3cccc4c3c(cn4C)C[C@H]21 | 2.7 µM | 4.9 µM | 2 | 
C[C@H]1[C@H](OC(=O)CCC(=O)O)O[C@@H]2O[C@@]3(C)CC[C@H]4[C@H](C)CC[C@@H]1[C@@]24OO3 [ARTESUNATE] | 2.8 ng/mL |  |  | 
CC[C@H]1CN2CCc3cc(OC)c(OC)cc3[C@@H]2C[C@@H]1C[C@H]1NCCc2cc(OC)c(OC)cc21 [EMETINE] |  | 0.05 µM |  | 
CN1C[C@H](CNC(=O)OCc2ccccc2)C[C@@H]2c3cccc4c3c(cn4C)C[C@H]21 [METERGOLINE] | 3.7 µM | 16.6 µM | 4.5 | 7.4 µM
